This is an account of results in PMC5862592, “CDK8/19 inhibition induces premature G1/S transition and ATR-dependent cell death in prostate cancer cells” (Oncotarget, 2018).

Common to all, as to experiment: biochemical
Parameters in all cases: KINOMEscan active site-directed competition binding assay (DiscoveRx), 456 kinases, per cent of control at 300 nM
What all share (details): read-out: Percent of Control (%)

The target in test [1] is ERBB3 (Homo sapiens, UniProt P21860). In short, it runs like this: (§1)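 At 300 nmol/L, compounds were assessed for kinase binding in an active site-directed competition format covering 456 kinases.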
The target of test [2] is CSNK2A1 (Homo sapiens, UniProt P68400). In short, it runs like this:
as §1

The target of test [3] is PLK4 (Homo sapiens, UniProt O00444). In short, it runs like this: as §1
For test [4], the target named is T1, p38-beta (Homo sapiens, UniProt Q15759).
T1 construct: gene MAPK11
In short, it runs like this:
as §1

In test [5] the target is ACVR2B (Homo sapiens, UniProt Q13705). In outline: as §1
The target of test [6] is T2, ABL1(F317L)-phosphorylated (Homo sapiens, UniProt P00519, F317L).
T2 construct: phosphorylated
In outline:
as §1

The target of test [7] is TXK (Homo sapiens, UniProt P42681). In outline:
as §1

In test [8] the target is FRK (Homo sapiens, UniProt P42685). In short, it runs like this:
as §1

Test [9] deals with T3, MEK3 (Homo sapiens, UniProt P46734).
T3 construct: gene MAP2K3
In outline: as §1

The target in test [10] is TAOK2 (Homo sapiens, UniProt Q9UL54). In short, it runs like this:
as §1

Test [11] has as its target WNK1 (Homo sapiens, UniProt Q9H4A3). In outline:
as §1

Test [12] concerns the target LATS1 (Homo sapiens, UniProt O95835). In short, it runs like this:
as §1

Test [13] has as its target PRKG2 (Homo sapiens, UniProt Q13237). In short, it runs like this: as §1
In test [14] the target is PIK3CA(M1043I) (Homo sapiens, UniProt P42336, M1043I). In outline:
as §1

Test [15] addresses T4, YSK4 (Homo sapiens, UniProt Q56UN5).
T4 construct: gene MAP3K19
In short, it runs like this: as §1

Test [16] has as its target T5, RSK4(Kin.Dom.2-C-terminal) (Homo sapiens, UniProt Q9UK32).
T5 construct: gene RPS6KA6; Kin.Dom.2-C-terminal
In short, it runs like this: as §1

In test [17] the target is T6, PRKR (Homo sapiens, UniProt P19525).
T6 construct: gene EIF2AK2
In outline:
as §1

The target in test [18] is NEK6 (Homo sapiens, UniProt Q9HC98). In short, it runs like this:
as §1

In test [19] the target is PIP5K1C (Homo sapiens, UniProt O60331). In outline:
as §1

Test [20] addresses CSK (Homo sapiens, UniProt P41240). In short, it runs like this:
as §1

For test [21], the target named is CHEK2 (Homo sapiens, UniProt O96017). In short, it runs like this:
as §1

For test [22], the target named is PIK3CA(E542K) (Homo sapiens, UniProt P42336, E542K). In short, it runs like this: as §1

Like-named read-outs stand apart in the source and are kept apart here.

T5 sequence (Q9UK32 whole entry): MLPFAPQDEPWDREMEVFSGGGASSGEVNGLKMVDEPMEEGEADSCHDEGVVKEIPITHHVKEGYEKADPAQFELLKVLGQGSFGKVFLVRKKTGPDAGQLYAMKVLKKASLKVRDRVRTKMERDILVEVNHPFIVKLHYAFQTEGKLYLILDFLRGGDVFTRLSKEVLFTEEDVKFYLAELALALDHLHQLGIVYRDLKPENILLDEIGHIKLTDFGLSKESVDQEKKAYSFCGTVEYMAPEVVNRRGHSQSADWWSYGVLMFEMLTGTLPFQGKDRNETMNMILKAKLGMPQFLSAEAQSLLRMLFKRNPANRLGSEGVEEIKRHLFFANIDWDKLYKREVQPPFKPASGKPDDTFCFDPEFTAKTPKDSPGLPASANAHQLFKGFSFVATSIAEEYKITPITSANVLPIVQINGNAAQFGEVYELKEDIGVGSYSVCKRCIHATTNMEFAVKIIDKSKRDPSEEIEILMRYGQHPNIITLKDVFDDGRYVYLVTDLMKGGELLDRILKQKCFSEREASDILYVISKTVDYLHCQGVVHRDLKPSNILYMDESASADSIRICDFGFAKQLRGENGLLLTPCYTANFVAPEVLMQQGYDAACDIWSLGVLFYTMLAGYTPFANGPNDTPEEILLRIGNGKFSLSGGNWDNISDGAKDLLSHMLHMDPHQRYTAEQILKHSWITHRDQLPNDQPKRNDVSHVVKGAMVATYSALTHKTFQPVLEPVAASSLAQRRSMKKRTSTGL
CHEK2, sequence (O96017 whole entry): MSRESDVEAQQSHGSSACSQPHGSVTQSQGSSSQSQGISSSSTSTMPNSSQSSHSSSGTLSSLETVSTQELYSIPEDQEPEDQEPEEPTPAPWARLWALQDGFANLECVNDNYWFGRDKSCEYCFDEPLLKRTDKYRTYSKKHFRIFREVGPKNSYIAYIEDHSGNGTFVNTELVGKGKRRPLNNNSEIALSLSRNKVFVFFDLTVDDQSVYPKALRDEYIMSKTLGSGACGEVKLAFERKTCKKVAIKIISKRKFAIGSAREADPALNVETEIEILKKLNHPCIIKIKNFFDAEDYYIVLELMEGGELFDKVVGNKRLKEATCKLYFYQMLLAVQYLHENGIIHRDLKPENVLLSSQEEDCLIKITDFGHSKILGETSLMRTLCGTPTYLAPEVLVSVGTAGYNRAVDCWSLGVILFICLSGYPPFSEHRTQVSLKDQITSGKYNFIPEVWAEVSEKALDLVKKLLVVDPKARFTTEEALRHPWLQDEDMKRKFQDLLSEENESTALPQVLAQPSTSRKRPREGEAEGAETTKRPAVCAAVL
NEK6, sequence (Q9HC98 whole entry): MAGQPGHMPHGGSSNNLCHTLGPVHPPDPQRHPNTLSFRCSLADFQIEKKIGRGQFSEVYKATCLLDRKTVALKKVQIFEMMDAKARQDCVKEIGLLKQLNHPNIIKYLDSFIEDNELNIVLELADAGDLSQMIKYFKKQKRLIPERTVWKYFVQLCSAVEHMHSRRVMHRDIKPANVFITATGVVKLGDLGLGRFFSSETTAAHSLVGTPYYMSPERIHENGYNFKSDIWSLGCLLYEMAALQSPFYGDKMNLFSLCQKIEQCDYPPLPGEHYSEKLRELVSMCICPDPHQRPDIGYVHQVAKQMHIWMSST
PIK3CA(E542K), sequence (P42336 whole entry E542K): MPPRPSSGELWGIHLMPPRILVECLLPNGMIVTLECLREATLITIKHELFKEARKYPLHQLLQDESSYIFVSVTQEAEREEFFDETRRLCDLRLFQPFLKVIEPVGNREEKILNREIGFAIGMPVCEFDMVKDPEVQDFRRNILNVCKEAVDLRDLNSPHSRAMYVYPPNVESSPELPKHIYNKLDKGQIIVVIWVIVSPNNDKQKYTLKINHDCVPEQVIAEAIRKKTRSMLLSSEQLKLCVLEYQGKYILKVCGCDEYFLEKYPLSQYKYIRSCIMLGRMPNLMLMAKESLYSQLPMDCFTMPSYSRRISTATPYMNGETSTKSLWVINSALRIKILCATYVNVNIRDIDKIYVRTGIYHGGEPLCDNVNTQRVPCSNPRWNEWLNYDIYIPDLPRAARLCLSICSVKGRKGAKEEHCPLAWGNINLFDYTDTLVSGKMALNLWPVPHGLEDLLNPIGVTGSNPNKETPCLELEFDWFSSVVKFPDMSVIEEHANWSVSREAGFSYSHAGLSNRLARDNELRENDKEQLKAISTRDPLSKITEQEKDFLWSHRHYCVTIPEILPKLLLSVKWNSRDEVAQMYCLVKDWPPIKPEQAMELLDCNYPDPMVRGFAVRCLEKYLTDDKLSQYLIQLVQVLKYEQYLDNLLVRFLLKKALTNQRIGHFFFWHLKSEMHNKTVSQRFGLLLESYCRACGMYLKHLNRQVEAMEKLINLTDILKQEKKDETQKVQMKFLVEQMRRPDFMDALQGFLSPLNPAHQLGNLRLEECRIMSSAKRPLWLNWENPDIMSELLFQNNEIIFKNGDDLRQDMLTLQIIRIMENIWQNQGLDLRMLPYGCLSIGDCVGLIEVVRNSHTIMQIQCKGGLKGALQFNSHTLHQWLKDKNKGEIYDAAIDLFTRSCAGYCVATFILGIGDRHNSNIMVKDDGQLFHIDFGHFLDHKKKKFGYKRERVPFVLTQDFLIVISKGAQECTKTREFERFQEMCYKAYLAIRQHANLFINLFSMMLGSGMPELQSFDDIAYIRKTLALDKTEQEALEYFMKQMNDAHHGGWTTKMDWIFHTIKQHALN
LATS1, sequence (O95835 whole entry): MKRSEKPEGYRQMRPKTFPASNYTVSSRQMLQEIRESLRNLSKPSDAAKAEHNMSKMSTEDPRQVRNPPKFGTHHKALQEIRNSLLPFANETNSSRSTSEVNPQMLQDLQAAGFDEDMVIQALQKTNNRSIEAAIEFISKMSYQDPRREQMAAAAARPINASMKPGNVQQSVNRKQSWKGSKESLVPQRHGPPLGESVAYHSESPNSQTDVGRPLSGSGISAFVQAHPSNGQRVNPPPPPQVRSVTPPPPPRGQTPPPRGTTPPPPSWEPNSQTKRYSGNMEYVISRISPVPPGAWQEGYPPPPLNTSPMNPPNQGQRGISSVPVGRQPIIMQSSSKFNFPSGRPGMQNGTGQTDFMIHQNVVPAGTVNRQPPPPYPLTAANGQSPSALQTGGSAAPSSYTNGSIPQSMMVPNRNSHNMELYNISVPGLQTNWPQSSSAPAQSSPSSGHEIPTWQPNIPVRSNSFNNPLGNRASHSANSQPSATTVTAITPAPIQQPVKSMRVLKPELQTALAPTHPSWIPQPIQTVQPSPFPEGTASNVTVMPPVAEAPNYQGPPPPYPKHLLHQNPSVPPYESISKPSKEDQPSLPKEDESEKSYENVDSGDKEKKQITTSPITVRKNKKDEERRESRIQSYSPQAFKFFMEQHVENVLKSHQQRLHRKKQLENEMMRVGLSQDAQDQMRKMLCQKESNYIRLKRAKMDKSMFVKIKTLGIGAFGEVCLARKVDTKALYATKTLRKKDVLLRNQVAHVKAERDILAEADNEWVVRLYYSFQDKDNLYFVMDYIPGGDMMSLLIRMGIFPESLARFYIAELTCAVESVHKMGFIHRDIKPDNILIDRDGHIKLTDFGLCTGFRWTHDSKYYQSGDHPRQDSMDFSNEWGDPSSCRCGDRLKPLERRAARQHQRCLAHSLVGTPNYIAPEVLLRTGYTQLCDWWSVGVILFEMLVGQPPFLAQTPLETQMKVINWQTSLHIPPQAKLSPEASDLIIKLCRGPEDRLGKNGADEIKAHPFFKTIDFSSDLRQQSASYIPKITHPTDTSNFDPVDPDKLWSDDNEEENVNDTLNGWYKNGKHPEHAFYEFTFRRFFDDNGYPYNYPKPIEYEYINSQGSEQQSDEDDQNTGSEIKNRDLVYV
CSNK2A1, sequence (P68400 whole entry): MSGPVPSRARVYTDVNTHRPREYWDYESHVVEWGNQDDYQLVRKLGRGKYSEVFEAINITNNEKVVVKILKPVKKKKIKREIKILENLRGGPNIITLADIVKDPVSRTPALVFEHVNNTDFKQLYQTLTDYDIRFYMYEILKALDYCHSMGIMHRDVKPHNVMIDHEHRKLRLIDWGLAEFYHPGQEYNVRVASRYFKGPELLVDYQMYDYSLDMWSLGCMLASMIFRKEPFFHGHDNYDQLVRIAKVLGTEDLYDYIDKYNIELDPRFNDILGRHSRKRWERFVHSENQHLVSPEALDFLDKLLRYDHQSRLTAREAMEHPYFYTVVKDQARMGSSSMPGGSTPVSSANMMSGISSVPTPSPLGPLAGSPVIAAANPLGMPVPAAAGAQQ
PRKG2, sequence (Q13237 whole entry): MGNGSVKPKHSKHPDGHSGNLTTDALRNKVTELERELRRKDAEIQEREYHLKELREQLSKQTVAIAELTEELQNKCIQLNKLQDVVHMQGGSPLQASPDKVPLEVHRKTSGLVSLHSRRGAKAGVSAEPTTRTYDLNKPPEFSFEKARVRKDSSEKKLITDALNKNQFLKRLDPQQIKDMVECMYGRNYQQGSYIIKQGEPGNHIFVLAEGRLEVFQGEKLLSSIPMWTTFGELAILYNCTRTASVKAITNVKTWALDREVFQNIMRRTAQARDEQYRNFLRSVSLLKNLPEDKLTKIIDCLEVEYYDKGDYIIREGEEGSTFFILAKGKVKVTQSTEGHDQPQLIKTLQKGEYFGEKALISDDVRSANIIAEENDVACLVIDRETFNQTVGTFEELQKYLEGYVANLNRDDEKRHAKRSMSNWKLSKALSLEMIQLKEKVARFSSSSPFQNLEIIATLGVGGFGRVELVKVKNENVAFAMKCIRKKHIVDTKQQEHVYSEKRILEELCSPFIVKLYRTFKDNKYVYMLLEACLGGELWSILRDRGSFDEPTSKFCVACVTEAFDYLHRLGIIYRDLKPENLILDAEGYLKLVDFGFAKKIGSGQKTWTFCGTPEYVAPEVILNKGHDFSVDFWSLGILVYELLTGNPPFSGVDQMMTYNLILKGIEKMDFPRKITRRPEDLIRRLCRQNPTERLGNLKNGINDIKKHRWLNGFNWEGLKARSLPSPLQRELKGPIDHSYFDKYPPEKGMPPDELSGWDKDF
PIK3CA(M1043I), sequence (P42336 whole entry M1043I): as the sequence (P42336 whole entry E542K) above, with K542E, M1043I counted along it

Turning to `O=C(/C=C/c1cnccc1-c1ccc(F)cc1)Nc1ccc(CCc2nnco2)cc1` [T-418, (2E)-3-(4-(4-fluorophenyl)pyridin-3-yl)-N-(4-(2-(1,3,4-oxadiazol-2-yl)ethyl)phenyl)acrylamide], the remaining binding at 0.3 µM in [1] (sheet T-418) turned out to be 76%; in test [2] (sheet T-418) it was 84%; in [3] (sheet T-418), 78%; in [4] (sheet T-418), 77%; in [5] (sheet T-418) it was 80%; in test [6] (sheet T-418), 100%. Besides, the remaining binding at 0.3 µM in [7] (sheet T-418) was determined as 72%; in [8] (sheet T-418), 97%; in test [9] (sheet T-418), 100%; in [10] (sheet T-418), 100%; in test [11] (sheet T-418), 100%; in test [12] (sheet T-418) it was 60%. Besides, the remaining binding at 0.3 µM in [13] (sheet T-418) worked out at 49%; in test [14] (sheet T-418), 100%; in test [15] (sheet T-418), 100%; in test [16] (sheet T-418) it was 100%; in [17] (sheet T-418) it was 100%; in test [18] (sheet T-418), 98%. Besides, the remaining binding at 0.3 µM in [19] (sheet T-418) was found to be 100%; in test [20] (sheet T-418), 86%; in [21] (sheet T-418), 89%; in test [22] (sheet T-418), 100%.

For the molecule `Cc1ncccc1Oc1sc(C(N)=O)c2c1-c1c(cnn1C)CC2` [T-474, 1-methyl-8-((2-methylpyridin-3-yl)oxy)-4,5-dihydro-1H-thieno[3,4-g]indazole-6-carboxamide], the remaining binding at 0.3 µM was found to be 78% in test [1]; 61% in [2]; 86% in test [3]; 64% in test [4]; 81% in test [5]; 100% in test [6]. Moreover, the remaining binding at 0.3 µM in test [7] worked out at 66%; in test [8], 97%; in test [9], 100%; in [10] it was 100%; in [11] it was 100%; in test [12] it was 67%. Also, the remaining binding at 0.3 µM in test [13] worked out at 48%; in [14], 100%; in [15], 100%; in [16], 100%; in test [17] it was 100%; in test [18] it was 100%. Besides, the remaining binding at 0.3 µM in [19] was 100%; in [20], 86%; in [21], 100%; in test [22], 100%.
